pEC50: −log10 of the molar value.
How the values were obtained:
[1] = target: T1, Probable G-protein coupled receptor 139 (Homo sapiens, UniProt Q6DWJ6); assay: Agonist activity at human GPR139 expressed in CHO-K1 cells assessed as increase in calcium flux by calcium 5 dye based FLIPR assay; format: functional, cell-based
T1 sequence (Q6DWJ6 whole entry): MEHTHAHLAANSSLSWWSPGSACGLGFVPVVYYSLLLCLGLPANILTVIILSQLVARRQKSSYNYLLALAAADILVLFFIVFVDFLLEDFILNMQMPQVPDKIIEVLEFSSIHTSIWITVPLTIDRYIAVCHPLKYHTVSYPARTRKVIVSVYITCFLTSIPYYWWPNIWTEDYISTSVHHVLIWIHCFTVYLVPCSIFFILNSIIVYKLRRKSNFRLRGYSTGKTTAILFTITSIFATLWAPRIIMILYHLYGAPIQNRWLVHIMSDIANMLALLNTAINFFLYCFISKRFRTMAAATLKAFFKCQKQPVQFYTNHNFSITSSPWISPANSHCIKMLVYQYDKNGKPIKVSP

[2] = target: T2, Probable G-protein coupled receptor 139 (Rattus norvegicus, UniProt P0C0W8); assay: Agonist activity at rat GPR139 expressed in CHO-K1 cells assessed as increase in calcium flux by calcium 5 dye based FLIPR assay; format: cell-based
T2 sequence (P0C0W8 whole entry): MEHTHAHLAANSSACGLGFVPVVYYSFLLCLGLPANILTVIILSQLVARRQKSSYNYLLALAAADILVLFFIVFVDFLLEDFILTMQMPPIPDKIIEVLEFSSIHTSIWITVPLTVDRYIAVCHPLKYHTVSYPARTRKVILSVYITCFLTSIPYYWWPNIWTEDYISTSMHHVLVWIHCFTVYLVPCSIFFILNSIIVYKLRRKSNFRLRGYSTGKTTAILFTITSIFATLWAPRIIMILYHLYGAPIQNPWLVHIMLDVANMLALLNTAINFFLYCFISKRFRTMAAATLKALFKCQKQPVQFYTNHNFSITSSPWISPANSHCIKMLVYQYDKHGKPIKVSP

[3] = target: T3, Probable G-protein coupled receptor 139 (Homo sapiens) (UniProt Q6DWJ6); assay: Agonist activity at human GPR139 expressed in CHO-K1 cells assessed as induction of beta-arrestin 2 recruitment incubated for 90 mins by PathHunter assay relative to JNJ63533054; format: cell-based
T3 sequence (whole entry): T1 sequence (Q6DWJ6 whole entry)

[4] = target: T3, Probable G-protein coupled receptor 139 (Homo sapiens); assay: Agonist activity at human GPR139 expressed in CHO-K1 cells assessed as increase in calcium flux by calcium 5 dye based FLIPR assay relative to JNJ63533054; format: functional, cell-based; settings: filed as agonist
[5] = target: T4, Probable G-protein coupled receptor 139 (Rattus norvegicus) (UniProt P0C0W8); assay: Agonist activity at rat GPR139 expressed in CHO-K1 cells assessed as increase in calcium flux by calcium 5 dye based FLIPR assay relative to JNJ63533054; format: cell-based
T4 sequence (whole entry): T2 sequence (P0C0W8 whole entry)

[6] = target: T1, Probable G-protein coupled receptor 139; assay: Agonist activity at human GPR139 expressed in CHO-K1 cells assessed as induction of beta-arrestin 2 recruitment incubated for 90 mins by PathHunter assay; format: cell-based

| SMILES | pEC50 [1] | pEC50 [2] | Emax ([3]; filed as agonist) | Emax [4] | Emax ([5]; filed as agonist) | pEC50 ([6]; cho-k1) | pEC50 ([1]; cho-k1) | pEC50 ([2]; cho-k1) | Emax [5] | Emax [3] | pEC50 [6] |
| --- | --- | --- | --- | --- | --- | --- | --- | --- | --- | --- | --- |
| C[C@H](NC(=O)Cn1nc2cc(C3CC3)cnn2c1=O)c1ccc(Cl)c(F)c1 | > 9.00 | > 9.00 | > 80% | > 80% | > 80% | 9.00 |  |  |  |  |  |
| Cc1ccc([C@H](C)NC(=O)Cn2nc3ccc(F)cn3c2=O)cc1F | > 9.00 | > 9.00 | 50% | > 80% | 50% | 9.00 |  |  |  |  |  |
| C[C@H](NC(=O)Cn1nc2cc(C#N)ccn2c1=O)c1ccc(Cl)c(F)c1 |  |  | 50% | > 80% | 50% | 9.00 | 9.00 | 9.00 |  |  |  |
| Cc1ncc([C@H](C)NC(=O)Cn2nc3cc(Cl)ccn3c2=O)cc1F |  |  | 50% | > 80% |  | 8.00 | 9.00 | 9.00 | 25% |  |  |
| COc1cccc2nn(CC(=O)N[C@@H](C)c3ccc(C)cc3)c(=O)n12 | > 9.00 |  |  | > 80% | 50% | 9.00 |  | 9.00 |  | 25% |  |
| O=C(Cn1nc2ccc(F)cn2c1=O)NC1(c2ccc(Cl)cc2)CC1 |  | ≤ 7.00 |  | > 80% |  |  | 8.00 |  | 25% | 25% | ≤ 7.00 |
| C[C@H](NC(=O)Cn1nc2ncc(F)cn2c1=O)c1ccc(OC(F)(F)F)cc1 |  | ≤ 7.00 |  | > 80% |  |  | 9.00 |  | 25% | 25% | ≤ 7.00 |
| C[C@H](NC(=O)Cn1nc2cc(NC3COC3)ccn2c1=O)c1ccc(Cl)c(F)c1 |  | > 9.00 | > 80% | > 80% | > 80% | 9.00 | 9.00 |  |  |  |  |
| COc1ccc2nn(CC(=O)N[C@@H](C)c3ccc(OC(F)(F)F)cc3)c(=O)n2c1 | > 9.00 |  | 50% | 50% | 25% |  |  | 9.00 |  |  | > 9.00 |
| O=C(Cn1nc2cccnn2c1=O)NC1(c2cccc(Cl)c2)CC1 | ≤ 7.00 | ≤ 7.00 |  | 50% | 50% |  |  |  |  | < 25% | ≤ 7.00 |
| C[C@H](NC(=O)[C@@H](C)n1nc2ncccn2c1=O)c1ccc(Cl)c(F)c1 |  |  | 50% | > 80% | 50% | 8.00 | 9.00 | 9.00 |  |  |  |
| Cc1ccc([C@H](C)NC(=O)Cn2nc3c(NCC(F)F)cccn3c2=O)cc1 | > 9.00 | > 9.00 | 50% | > 80% | > 80% |  |  |  |  |  | > 9.00 |
| C[C@H](NC(=O)Cn1nc2cc(N3CCN(C)CC3)ccn2c1=O)c1ccc(OC(F)(F)F)cc1 | ≤ 7.00 | ≤ 7.00 |  | 50% | 50% |  |  |  |  | 25% | ≤ 7.00 |
| C[C@H](NC(=O)Cn1nc2cccnn2c1=O)c1ccc(Cl)cc1 |  |  |  | > 80% | 50% |  | 9.00 | 8.00 |  | 25% | ≤ 7.00 |
| C[C@H](NC(=O)Cn1nc2ncccn2c1=O)c1ccc(Cl)c(F)c1 |  |  | 50% | > 80% | 50% |  | 9.00 | 9.00 |  |  | ≤ 7.00 |
| C[C@H](NC(=O)Cn1nc2ncc(C3CC3)cn2c1=O)c1ccc(Cl)c(F)c1 | > 9.00 |  | 50% | > 80% | 50% | 9.00 |  | 8.00 |  |  |  |
| Cc1ccc([C@H](C)NC(=O)Cn2nc3c(F)cccn3c2=O)cc1 |  |  | 50% | > 80% | 50% |  | 9.00 | 9.00 |  |  | ≤ 7.00 |
| C[C@@H](NC(=O)Cn1nc2ccccn2c1=O)c1ccc(Cl)c(F)c1 | ≤ 7.00 | > 9.00 |  | > 80% | 50% |  |  |  |  | 25% | ≤ 7.00 |
| Cc1cnc2nn(CC(=O)N[C@@H](C)c3ccc(OC(F)(F)F)c(F)c3)c(=O)n2c1 |  |  | 50% | > 80% |  | 9.00 | 9.00 | 8.00 | 25% |  |  |
| C[C@H](NC(=O)Cn1nc2cccnn2c1=O)c1ccc(OC(F)(F)F)c(F)c1 |  |  | 50% | > 80% | 50% | 8.00 | 9.00 | 9.00 |  |  |  |
| C[C@H](NC(=O)Cn1nc2c(N3CCC34CN(C)C4)cccn2c1=O)c1ccc(Cl)c(F)c1 |  |  |  | 50% | > 80% | 8.00 | 8.00 | 8.00 |  | 25% |  |
| C[C@H](NC(=O)Cn1nc2ncccn2c1=O)c1ccc(C2CC2)cc1 | ≤ 7.00 | ≤ 7.00 |  | 50% |  |  |  |  | < 25% | < 25% | ≤ 7.00 |
| Cc1cnn2c(=O)n(CC(=O)N[C@@H](C)c3ccc(OC(F)(F)F)cc3)nc2c1 |  | ≤ 7.00 | 50% | > 80% | 50% |  | 9.00 |  |  |  | ≤ 7.00 |
| CNc1cccn2c(=O)n(CC(=O)N[C@@H](C)c3ccc(C)cc3)nc12 | > 9.00 | > 9.00 | > 80% | > 80% | > 80% | 9.00 |  |  |  |  |  |
| COc1ccn2c(=O)n(CC(=O)N[C@@H](C)c3ccc(Cl)c(F)c3)nc2c1 | > 9.00 | > 9.00 | > 80% | > 80% | 50% | 9.00 |  |  |  |  |  |
| C[C@H](NC(=O)Cn1nc2cc(OC3COC3)ccn2c1=O)c1ccc(OC(F)(F)F)cc1 |  |  | > 80% | > 80% | 50% |  | 9.00 | 9.00 |  |  | ≤ 7.00 |
| Cc1cnc2nn(CC(=O)N[C@@H](C)c3ccc(OC(F)(F)F)cc3)c(=O)n2c1 |  | ≤ 7.00 |  | 50% |  |  | 9.00 |  | 25% | 25% | ≤ 7.00 |
| C[C@H](NC(=O)Cn1nc2ccccn2c1=O)c1ccc(C(F)(F)F)cc1 |  |  | 50% | > 80% |  | 8.00 | 9.00 | 9.00 | 25% |  |  |

— ChEMBL document CHEMBL4739716, “Gpr139 receptor modulators” (2020)
